Measurements from patent US11672772B2, “Use of glycyrrhetinic acid, glycyrrhizic acid and related compounds for mitigation and/or treatment of pneumonitis/pneumonia/pulmonary fibrosis induced by virus infection and/or by chemical or biological agents” (priority 2020, dated 2023).

Tests used:
H1N1 A/FM/1/47 = assay: H1N1-pneumonia (H1N1-flu model) in mice; format: in vivo, C57BL/6 mice
BLM-pneumonitis = BLM-pneumonitis in C57BL/6 mice; format: in vivo; settings: for mitigation/treatment effect on the severity of BLM-pneumonitis: 3 week period, compared with Dexamethasone; for neutrophils % / lymphocytes % / number of lymphocytes: C57BL/6 mice with BLM-pneumonitis; for lymphocytes % / number of lymphocytes: vs saline-treated; for body weight / dose as low as which could reduce the severity of BLM-pneumonitis: C57BL/6 mice; for body weight: BLM, oral Dexamethasone 1, GR 70, GA 22 mg/kg/day, 2 weeks; for dose as low as which could reduce the severity of BLM-pneumonitis: oral
Method: (§1) The subject invention provides an easy-perform mouse model with inhalation of 110-130 ul of liquid dissolved with various chemicals (e.g., anti-cancer drug or toxic paraquat) deep into whole lung to induce chemicals-pneumonitis. Compared with currently used intratracheal instillation, this new method is more quick (finished within 3 minutes) and non-invasion without surgically exposing the trachea. It delivers agents using a micropipette into the trachea at the back of the throat and allows the mouse to inhale into the lung with operator help for liquid deep-even distribution in the whole lung. This easy operation can quickly set-up for more than one hundred mice with chemicals-pneumonitis, providing enough mice for the screening or validating of various chemical or biological agents for anti-lung inflammation/infection to meet clinical needs.
(§2) A. After anesthesia, a rubber band was attached to the front teeth of the mice, and the mouse body was vertically upright. The tip of the tongue was pulled out with forceps, and 100-130 ul of liquid reagent was dripped into the upper part of the trachea at the back of the throat. The reagent was naturally inhaled into the mouse lung. […] Entire process was about one minute.
(§3) B. The mouse held firmly in the hands of the operator, moved up and down for 3-5 times to let the liquid moving deep into the lung, rotated around for 2-3 circles and repeated for 3 times to let the liquid evenly distributed in the lung. Entire process was about one minute.
C57BL/6 mice (8 weeks, male) were anesthetized and inhalated 110 ul of 5 mg/ml Bleomycin (BLM) to induce BLM-pneumonitis (new method in FIG. 2). Then, the mice were randomly divided into groups (7 mice/group) and orally given different agents: 1) Normal: as time control without any treatment; 2) NS: treated with saline as vehicle control (all agents in saline); 3) Dexamethasone: 1 mg/kg/day of Dexamethasone; 4) GR: at the indicated three different doses of GR; 5) GA: at the indicated three different doses of GA. Due to the severe BLM-pneumonitis, the inflammatory factors (such as MPO, IL 6 etc.) were released to cause acute reactions: dilation of alveolar capillaries, increased permeability, plasma exudation, blood cells entering the lung interstitium/alveoli, resulting in an increased wet weight of whole lung. The lung index was calculated as: whole lung wet weight/body weight. The higher of lung index, the severer of pneumonitis.
C57BL/6 mice (8 weeks, male) were anesthetized and inhalated 110 ul of 5 mg/ml Bleomycin (BLM) to induce BLM-pneumonitis (new method in FIG. 2). Then, the mice were randomly divided into four groups and orally given different agents: 1) NS: vehicle of saline; 2) Dexamethasone: 1 mg/kg/day of Dexamethasone; 3) GR: 70 mg/kg/day of GR; 4) GA: 22 mg/kg/day of GA. Due to the severe lung inflammation, the body weights of mice were lost during 2 weeks.

[1] = test system: TGFβ and Collagen I expression in lung tissue; assay: Bleomycin-induced late lung damage, lung tissue q-PCR of pro-fibrosis molecules; format: in vivo, Mice; settings: 5 weeks after inhalation
[2] = test system: Bleomycin (BLM) pneumonitis; assay: Bleomycin-induced pneumonitis in ICR mice (new inhalation method), left and right lung lobes; format: in vivo; settings: for pathology HE staining of lung: BLM-pneumonitis, GR/GA treatment vs NS; for lung sizes and lung index (lung wet weight/body weight), left and right side: inhaled 110 ul of 5 mg/ml BLM, oral GR 122 mg/kg/day or GA 67 mg/kg/day, three weeks, vs saline (NS)
Method: as §1, §2, §3
Then, the mice were randomly divided into three groups (6 mice/group) and orally given different agents: 1) NS: vehicle of saline; 2) GR: 122 mg/kg/day of GR; 3) GA: 67 mg/kg/day of GA. Three weeks later, mice were sacrificed and the lung lobes of left and right sides were harvested separately.

[3] = test system: various chemicals-induced pneumonitis (Bleomycin, Cisplatin, 5-Fluorouracil, Mitomycin, Methotrexate, paraquat); assay: Various chemicals-induced pneumonitis in ICR mice; format: in vivo; settings: for lung index (lung wet weight/body weight) / WBC number in blood: ICR mice, different time points; for lung index (lung wet weight/body weight): various inhaled chemicals, gavage of GR or GA; for WBC number in blood: gavage 122 mg/kg/day of GR or 67 mg/kg/day of GA within one hour; for number of neutrophils: pneumonitis induced by anticancer agents; for NLR (ratio of neutrophils to lymphocytes): various chemicals-induced pneumonitis; for lymphocytes %: various chemicals-induced pneumonitis incl. 5-FU, BLM and Cisplatin
Osimertinib-pneumonitis = format: in vivo, human; settings: GR 300 mg/day orally
Method: A patient with lung cancer was treated with Osimertinib (80 mg/day), targeting EGFR pathway. […] At this time point, GR (300 mg/day) was orally used and the extent of Osimertinib-pneumonitis was reduced after one month use of GR (FIG. 17 C). Six months after using GR, pneumonitis subsided while Osimertinib was continuously used to target EGFR pathway (FIG. 17 D).

[4] = test system: IL6 and MPO expression in lung tissue; assay: Bleomycin+Paraquat-induced pneumonitis, lung tissue q-PCR of acute inflammation molecules; format: in vivo; settings: ICR mice, Bleomycin then paraquat 2 weeks later; sacrificed after 2 weeks
Method: ICR mice were inhalated with 130 ul of 5 mg/ml, and then 2 week later 0.1 mg/ml of paraquat with mitigation using GR or GA. After 2 weeks, mice were sacrificed and the lung tissue were examined with q-PCR for the expression of acute inflammation molecules, such as IL6 and MPO.

[5] = Pharmacokinetics (PK) after oral GR or GA, plasma LC-MS/MS; format: in vivo; settings: ICR mice, 400 mg/kg of GR or 224 mg/kg of GA (equal mole)
Method: After oral taken, it is converted into GA, an aglycone, fat soluble and easily absorbed through double lipid layer. Therefore, we propose that their pharmacokinetics (PK) should be different. […] 100 μl of plasma was added with 30 μl internal standard solution (100 ng/ml) and then 0.5 ml ethyl acetate. The mixture was vortex mixed for 3 min, centrifuged at 14 000×g for 15 min, and then removed 470 μl of supernatant to dry. After re-dissolved in 100 μl of acetonitrile-water (80[…]20, V/V, mobile phase agent), 20 μl was used for LC-MS/MS analysis.

H22 liver cancer = assay: Tumor growth in ICR mice bearing H22 liver cancer; format: in vivo; settings: GA 40 mg/kg
Method: To determine if GR/GA are used for mitigation/treatment of anti-cancer drugs induced pneumonitis has any blocking effect on anticancer, the GA (40 mg/kg) was used in ICR mice bearing with aggressive H22 liver cancer.

H22 tumor = assay: H22 tumor-bearing mice treated with active immunotherapy (H22 vaccine) with GA; format: in vivo
Method: To determine if GA affects the anti-cancer immunotherapy, the H22 tumor-bearing mice were immunized with H22 vaccine, and GA (40 mg/kg) was used for anti-inflammation. The traditional Aspirin (60 mg/kg) was used as drug-control.

CC1(C)[C@@H](O[C@H]2O[C@H](C(=O)O)[C@@H](O)[C@H](O)[C@H]2O[C@@H]2O[C@H](C(=O)O)[C@@H](O)[C@H](O)[C@H]2O)CC[C@]2(C)[C@H]3C(=O)C=C4[C@@H]5C[C@@](C)(C(=O)O)CC[C@]5(C)CC[C@@]4(C)[C@]3(C)CC[C@@H]12 [GR, glycyrrhizic acid]
lymphocytes number (H1N1 A/FM/1/47; H1N1-pneumonia, vs NS): increased it in greater degree than Ribavirin
neutrophils % (H1N1 A/FM/1/47; H1N1-pneumonia, vs NS): reduced them in greater degree than Ribavirin
neutrophils number (H1N1 A/FM/1/47; H1N1-pneumonia, vs NS): reduced them in greater degree than Ribavirin
lung index (H1N1 A/FM/1/47; day 7, 2×LD50 virus, GR 70 mg/kg gavage once a day): acted like Ribavirin to reduce the lung index
lymphocytes % (H1N1 A/FM/1/47; day 7 of infection): slightly increased
IFNg level (H1N1 A/FM/1/47; day 12): much less than that in NS and Ribavirin group
MCP-1 level (H1N1 A/FM/1/47; day 12): reduces MCP-1 to a normal level
WBC number (H1N1 A/FM/1/47; day 12): reduced WBC number greater than Ribavirin
lymphocytes % (H1N1 A/FM/1/47; day 12): significantly increased
ratio of neutrophils to lymphocytes (NLR) (H1N1 A/FM/1/47; day 12): reduced
spleen index (H1N1 A/FM/1/47; day 12): reduced spleen index
lung index (H1N1 A/FM/1/47; day 12, 1×LD50 virus): still had a reduced lung index
mitigation/treatment effect on the severity of BLM-pneumonitis (BLM-pneumonitis): better than Dexamethasone
neutrophils % (BLM-pneumonitis): greatly reduced
lymphocytes % (BLM-pneumonitis): increased almost to the normal level
number of lymphocytes (BLM-pneumonitis): increased
body weight (BLM-pneumonitis): helped mice to maintain their body weight
dose as low as which could reduce the severity of BLM-pneumonitis (BLM-pneumonitis): ≤ 40 mg/kg/day
Collagen I expression in lung tissue (q-PCR) [1]: reduced
TGFb expression in lung tissue (q-PCR) [1]: reduced
pathology HE staining of lung [2]: less inflitration of inflammation cells and better lung structure
lung sizes and lung index (lung wet weight/body weight), left and right side [2]: significantly reduced
lung index (lung wet weight/body weight) [3]: significantly reduced
WBC number in blood [3]: reduced
number of neutrophils [3]: reduced
NLR (ratio of neutrophils to lymphocytes) [3]: reduce
lymphocytes % [3]: increased
extent of Osimertinib-pneumonitis (Osimertinib-pneumonitis; after one month): reduced
Osimertinib-pneumonitis (Osimertinib-pneumonitis; six months, Osimertinib continued): subsided

glycyrrhetinic acid [GA]
WBC number (H1N1 A/FM/1/47; day 12): reduced WBC number greater than Ribavirin
lymphocytes % (H1N1 A/FM/1/47; day 12): significantly increased
IL6 expression in lung tissue (q-PCR) [4]: reduces
MPO expression in lung tissue (q-PCR) [4]: reduces
mitigation/treatment effect on the severity of BLM-pneumonitis (BLM-pneumonitis): better than Dexamethasone
neutrophils % (BLM-pneumonitis): greatly reduced
lymphocytes % (BLM-pneumonitis): increased almost to the normal level
number of lymphocytes (BLM-pneumonitis): increased
body weight (BLM-pneumonitis): helped mice to maintain their body weight
dose as low as which could reduce the severity of BLM-pneumonitis (BLM-pneumonitis): ≤ 22 mg/kg/day
Tmax [5]: 30 min
Collagen I expression in lung tissue (q-PCR) [1]: reduced
TGFb expression in lung tissue (q-PCR) [1]: reduced
pathology HE staining of lung [2]: less inflitration of inflammation cells and better lung structure
lung sizes and lung index (lung wet weight/body weight), left and right side [2]: significantly reduced
lung index (lung wet weight/body weight) [3]: significantly reduced
WBC number in blood [3]: reduced
number of neutrophils [3]: reduced
NLR (ratio of neutrophils to lymphocytes) [3]: reduce
lymphocytes % [3]: increased
growth of tumor (H22 liver cancer): could reduce the growth of cancer in vivo
survival (H22 tumor; 80 day follow-up, tumor-bearing mice treated with H22 vaccine and GA): could prolong the survival time of mice
effect of combination use on the anti-tumor effect of H22 vaccine (H22 tumor; GA 40 mg/kg with H22 vaccine): not affected
